In test [1] the target is horse reddish butyrylcholinesterase (BChE, EC 3.1.1.8) (Equus caballus, UniProt P81908). Description: biochemical. The note with it: for IC50: mean ± SEM of three parallel measurements. The procedure: (§1) The electric eel acetylcholinesterase (AChE, Type–VI-S, EC 3.1.1.7, 425.84 U/mg) and horse reddish butyrylcholinesterase (BChE, EC 3.1.1.8, 11.4 U/mg) were used to determine the anticholinesterase activity. […] After incubation for 15 min at 25 °C, 20 μL 0.5 mM DTNB (5,50-dithiobis(2-nitrobenzoic acid)) and 20 μL acetylthiocholine iodide (0.71 mM) or butyryl-thiocholine chloride (0.2 mM) were added. Then, the absorbance was measured at 412 nm.
horse reddish butyrylcholinesterase (BChE, EC 3.1.1.8), sequence (P81908 whole entry): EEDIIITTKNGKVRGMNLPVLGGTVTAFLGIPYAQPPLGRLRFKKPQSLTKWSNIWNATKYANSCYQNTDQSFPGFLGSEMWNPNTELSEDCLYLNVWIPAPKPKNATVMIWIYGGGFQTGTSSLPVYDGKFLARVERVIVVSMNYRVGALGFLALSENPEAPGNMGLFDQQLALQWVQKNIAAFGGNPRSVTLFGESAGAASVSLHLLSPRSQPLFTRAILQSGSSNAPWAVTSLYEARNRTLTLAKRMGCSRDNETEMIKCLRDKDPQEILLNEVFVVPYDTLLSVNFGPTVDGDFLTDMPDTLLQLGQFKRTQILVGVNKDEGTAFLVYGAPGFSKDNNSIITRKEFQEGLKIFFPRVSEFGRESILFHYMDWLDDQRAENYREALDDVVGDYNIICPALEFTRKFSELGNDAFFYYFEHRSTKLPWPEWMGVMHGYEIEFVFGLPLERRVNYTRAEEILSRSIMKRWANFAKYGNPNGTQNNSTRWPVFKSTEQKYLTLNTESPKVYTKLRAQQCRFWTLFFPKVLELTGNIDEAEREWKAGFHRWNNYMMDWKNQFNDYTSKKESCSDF
(§2) Lineweaver–Burk plots were drawn from the data obtained as a result of the experimental study.[24]

Test [2] concerns the target T1, electric eel acetylcholinesterase (AChE, Type–VI-S, EC 3.1.1.7) (Electrophorus electricus, UniProt O42275).
T1 construct: purchased Type–VI-S
Description: biochemical. The note with it: for IC50: mean ± SEM of three parallel measurements. The procedure:
as §1, §2

One may read the IC50 as the midpoint of a concentration-inhibition curve.

T1 sequence (O42275 24-633): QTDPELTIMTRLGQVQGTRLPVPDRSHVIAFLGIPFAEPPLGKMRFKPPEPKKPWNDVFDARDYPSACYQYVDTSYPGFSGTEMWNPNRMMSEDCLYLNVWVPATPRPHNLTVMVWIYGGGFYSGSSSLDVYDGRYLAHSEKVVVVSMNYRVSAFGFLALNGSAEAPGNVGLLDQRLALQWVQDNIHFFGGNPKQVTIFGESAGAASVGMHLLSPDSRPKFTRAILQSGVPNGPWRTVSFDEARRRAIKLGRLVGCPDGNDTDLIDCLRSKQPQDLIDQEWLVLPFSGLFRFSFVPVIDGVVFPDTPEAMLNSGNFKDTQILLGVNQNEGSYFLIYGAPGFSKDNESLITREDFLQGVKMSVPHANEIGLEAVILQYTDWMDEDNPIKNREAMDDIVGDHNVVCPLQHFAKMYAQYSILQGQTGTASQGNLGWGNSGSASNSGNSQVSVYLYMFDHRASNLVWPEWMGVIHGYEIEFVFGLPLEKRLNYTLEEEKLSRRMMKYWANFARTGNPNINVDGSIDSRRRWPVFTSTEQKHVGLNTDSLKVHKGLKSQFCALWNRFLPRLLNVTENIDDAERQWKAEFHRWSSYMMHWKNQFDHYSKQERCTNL

As to `O=S(=O)(N/N=C/c1ccccc1O)c1cccc(C(F)(F)F)c1` [Compound 3, (E)-N′-(2-Hydroxybenzylidene)-3-(trifluoromethyl)benzenesulfonohydrazide], the concentration for half-maximal inhibition (IC50) was 119.8 ± 0.17 µM in test [1] and 104.2 ± 0.56 µM in test [2].

Take `O=S(=O)(N/N=C/c1ccccc1O)c1ccccc1OC(F)(F)F` [Compound 5, (E)-N′-(2-Hydroxybenzylidene)-2-(trifluoromethoxy)benzenesulfonohydrazide]: the IC50 is 69 ± 1.06 µM in test [1] and 53.1 ± 0.58 µM in test [2].

For the molecule `O=S(=O)(N/N=C/c1ccccc1O)c1ccc(F)cc1` [Compound 1, (E)-4-Fluoro-N′-(2-hydroxybenzylidene)benzenesulfonohydrazide], the IC50 worked out at 124.4 ± 0.28 µM in test [1] and 117.5 ± 0.38 µM in test [2].

For `O=S(=O)(N/N=C/c1ccccc1O)c1ccc(OC(F)(F)F)cc1` [Compound 7, (E)-N′-(2-Hydroxybenzylidene)-4-(trifluoromethoxy)benzenesulfonohydrazide], the “type of inhibition of BChE (Lineweaver–Burk plots)” value in test [1] was “competitively”. The Ki in test [1] (competitive inhibition, read-out: inhibition constant for BChE (Lineweaver–Burk plots)) is 41.7 ± 3.18 µM; in test [2] (competitive inhibition, read-out: inhibition constant for AChE (Lineweaver–Burk plots)), 28.2 ± 2.51 µM. Moreover, the results for the IC50 in test [1] and in test [2] were 40.3 ± 0.66 µM and 29.1 ± 0.94 µM, respectively. For the same molecule, the “type of inhibition of AChE (Lineweaver–Burk plots)” value in test [2] is listed as “competitively”. In addition, the “AChE inhibitory activity relative to the standard galantamine” value in test [2] (compared with galantamine) is “seven times lower”.

Take `O=S(=O)(N/N=C/c1ccccc1O)c1ccccc1C(F)(F)F` [Compound 2, (E)-N′-(2-Hydroxybenzylidene)-2-(trifluoromethyl)benzenesulfonohydrazide]: the IC50 in test [1] was 100.1 ± 0.12 µM; in test [2], 91.77 ± 0.33 µM.

As for `O=S(=O)(N/N=C/c1ccccc1O)c1cccc(OC(F)(F)F)c1` [Compound 6, (E)-N′-(2-Hydroxybenzylidene)-3-(trifluoromethoxy)benzenesulfonohydrazide], the IC50 in test [1] came out at 86.4 ± 0.14 µM; in test [2], 80.3 ± 0.91 µM.

On to `O=S(=O)(N/N=C/c1ccccc1O)c1ccc(C(F)(F)F)cc1` [Compound 4, (E)-N′-(2-Hydroxybenzylidene)-4-(trifluoromethyl)benzenesulfonohydrazide], for which the IC50 in test [1] was found to be 75.34 ± 0.18 µM; in test [2] it was 68.67 ± 0.43 µM.

The record behind these values is paper PMC11465619 (ACS Omega, 2024).
